“And” between values parts separate entries of the source, which are not always exact repeats. Identical values can stand only once. Toxic doses and inconclusive results are not listed.
System: CD2F1 mice, L1210 leukemia ip, survival T/C
Experiment: NCI In Vivo Anticancer Drug Screen. Data for tumor model L1210 Leukemia (intraperitoneal) in CD2F1 (CDF1) mice
Conditions: higher = longer survival
In short: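 Transplantable tumor in mice; compound-treated vs vehicle-treated groups. Read-out = treated/control ratio of the measured endpoint.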

[1] = endpoint: mean survival time, dose: 100.0 mg/kg/injection, schedule: Q04DX002 (ip), vehicle: saline with Tween-80
[2] = endpoint: mean survival time, dose: 200.0 mg/kg/injection, schedule: Q04DX002 (ip), vehicle: saline with Tween-80
[3] = endpoint: mean survival time, dose: 400.0 mg/kg/injection, schedule: Q04DX002 (ip), vehicle: saline with Tween-80
[4] = endpoint: mean survival time, dose: 200.0 mg/kg/injection, schedule: Q01DX001 (ip), vehicle: saline
[5] = endpoint: mean survival time, dose: 50.0 mg/kg/injection, schedule: Q01DX009 (ip), vehicle: saline with Tween-80
[6] = endpoint: mean survival time, dose: 100.0 mg/kg/injection, schedule: Q01DX009 (ip), vehicle: saline with Tween-80
[7] = endpoint: mean survival time, dose: 200.0 mg/kg/injection, schedule: Q01DX009 (ip), vehicle: saline with Tween-80
[8] = endpoint: mean survival time, dose: 25.0 mg/kg/injection, schedule: Q01DX009 (ip), vehicle: saline
[9] = endpoint: mean survival time, dose: 50.0 mg/kg/injection, schedule: Q01DX009 (ip), vehicle: saline
[10] = endpoint: mean survival time, dose: 50.0 mg/kg/injection, schedule: Q01DX001 (ip), vehicle: saline with Tween-80
[11] = endpoint: mean survival time, dose: 50.0 mg/kg/injection, schedule: Q04DX003 (ip), vehicle: saline with Tween-80
[12] = endpoint: mean survival time, dose: 100.0 mg/kg/injection, schedule: Q04DX003 (ip), vehicle: saline with Tween-80
[13] = endpoint: mean survival time, dose: 200.0 mg/kg/injection, schedule: Q04DX003 (ip), vehicle: saline with Tween-80
[14] = endpoint: mean survival time, dose: 400.0 mg/kg/injection, schedule: Q01DX009 (ip), vehicle: saline with Tween-80
[15] = endpoint: mean survival time, dose: 400.0 mg/kg/injection, schedule: Q04DX003 (ip), vehicle: saline with Tween-80
[16] = endpoint: mean survival time, dose: 100.0 mg/kg/injection, schedule: Q01DX001 (ip), vehicle: saline with Tween-80
[17] = endpoint: mean survival time, dose: 200.0 mg/kg/injection, schedule: Q01DX001 (ip), vehicle: saline with Tween-80
[18] = endpoint: mean survival time, dose: 200.0 mg/kg/injection, schedule: Q01DX001 (ip), vehicle: other
[19] = endpoint: mean survival time, dose: 400.0 mg/kg/injection, schedule: Q01DX001 (ip), vehicle: other

CC12CCC3C(CCC4CC(OC(=O)Cc5ccc(N(CCCl)CCCl)cc5)CCC43C)C1CCC(=O)N2 (stereo not given)
T/C (endpoint: mean survival time, dose: 0.75 mg/kg/injection, schedule: Q01DX009 (ip), vehicle: saline with Tween-80): 98 % of control
T/C (endpoint: mean survival time, dose: 1.5 mg/kg/injection, schedule: Q01DX009 (ip), vehicle: saline with Tween-80): 102 % of control
T/C (endpoint: mean survival time, dose: 3.0 mg/kg/injection, schedule: Q01DX009 (ip), vehicle: saline with Tween-80): 108 % of control
T/C (endpoint: mean survival time, dose: 6.0 mg/kg/injection, schedule: Q01DX009 (ip), vehicle: saline with Tween-80): 112 % of control
T/C (endpoint: mean survival time, dose: 12.0 mg/kg/injection, schedule: Q01DX009 (ip), vehicle: saline with Tween-80): 122 % of control
T/C (endpoint: median survival time, dose: 3.0 mg/kg/injection, schedule: Q01DX009 (ip), vehicle: saline with Tween-80): 115 % of control
T/C (endpoint: median survival time, dose: 6.0 mg/kg/injection, schedule: Q01DX009 (ip), vehicle: saline with Tween-80): 119 % of control
T/C (endpoint: median survival time, dose: 24.0 mg/kg/injection, schedule: Q01DX009 (ip), vehicle: saline with Tween-80): 166 % of control and 168 % of control
T/C (endpoint: median survival time, dose: 48.0 mg/kg/injection, schedule: Q01DX009 (ip), vehicle: saline with Tween-80): 98 % of control and 111 % of control

CCCCCCCCCCCCCCOc1ccccc1Cl
T/C [1]: 101 % of control
T/C [2]: 101 % of control
T/C [3]: 90 % of control

CC(C)(O)C1CC2C=CC1C2 (stereo not given)
T/C [1]: 98 % of control
T/C [2]: 102 % of control
T/C [3]: 94 % of control

CCCCOCCSc1ccccc1
T/C (endpoint: mean survival time, dose: 100.0 mg/kg/injection, schedule: Q01DX001 (ip), vehicle: saline): 96 % of control
T/C [4]: 93 % of control

CC(N)CCCO (stereo not given)
T/C [4]: 109 % of control
T/C (endpoint: mean survival time, dose: 400.0 mg/kg/injection, schedule: Q01DX001 (ip), vehicle: saline): 94 % of control

O=C(Cl)c1ccc([N+](=O)[O-])cc1
T/C [5]: 96 % of control
T/C [6]: 101 % of control
T/C [7]: 104 % of control

NC(=O)C1(N2CCCCC2)CCN(CCCC(=O)c2ccc(F)cc2)CC1
T/C [8]: 101 % of control
T/C [9]: 101 % of control

CC[As](=O)(O)c1ccc([N+](=O)[O-])cc1
T/C (endpoint: mean survival time, dose: 25.0 mg/kg/injection, schedule: Q01DX001 (ip), vehicle: saline with Tween-80): 98 % of control
T/C [10]: 96 % of control

NC(CNC(=O)CBr)C(=O)O (stereo not given)
T/C (endpoint: median survival time, dose: 3.0 mg/kg/injection, schedule: Q01DX009 (ip), vehicle: water): 111 % of control
T/C (endpoint: median survival time, dose: 6.0 mg/kg/injection, schedule: Q01DX009 (ip), vehicle: water): 122 % of control and 124 % of control
T/C (endpoint: median survival time, dose: 12.5 mg/kg/injection, schedule: Q01DX009 (ip), vehicle: water): 122 % of control
T/C (endpoint: median survival time, dose: 24.0 mg/kg/injection, schedule: Q01DX009 (ip), vehicle: water): 156 % of control
T/C (endpoint: median survival time, dose: 25.0 mg/kg/injection, schedule: Q01DX009 (ip), vehicle: water): 120 % of control
T/C (endpoint: median survival time, dose: 48.0 mg/kg/injection, schedule: Q01DX009 (ip), vehicle: water): 156 % of control

O=C(NC(Cc1ccccc1)C(=O)CCl)OCc1ccccc1 (stereo not given)
T/C (endpoint: mean survival time, dose: 25.0 mg/kg/injection, schedule: Q04DX003 (ip), vehicle: saline with Tween-80): 97 % of control
T/C [11]: 100 % of control
T/C [12]: 109 % of control

CCCC(=O)OCc1ccc(Cl)cc1Cl
T/C [6]: 96 % of control
T/C [12]: 91 % of control
T/C [7]: 98 % of control
T/C [13]: 89 % of control
T/C [14]: 98 % of control
T/C [15]: 96 % of control

O=[N+]([O-])c1c[c]([Hg][Cl])c(O)[c]([Hg][Cl])c1
T/C (endpoint: mean survival time, dose: 12.5 mg/kg/injection, schedule: Q04DX003 (ip), vehicle: saline with Tween-80): 93 % of control

O=C(NC(Cc1c[nH]c2ccccc12)C(=O)O)c1ccccc1 (stereo not given)
T/C [6]: 108 % of control
T/C [12]: 109 % of control
T/C [7]: 100 % of control
T/C [13]: 98 % of control
T/C [14]: 104 % of control
T/C [15]: 103 % of control
T/C (endpoint: mean survival time, dose: 600.0 mg/kg/injection, schedule: Q01DX009 (ip), vehicle: saline with Tween-80): 108 % of control

N.N.N.N.N.N#CN=C(N)N.[Co+3].[O-][Cl+3]([O-])([O-])[O-]
T/C (endpoint: mean survival time, dose: 25.0 mg/kg/injection, schedule: Q04DX002 (ip), vehicle: saline): 97 % of control
T/C (endpoint: mean survival time, dose: 50.0 mg/kg/injection, schedule: Q04DX002 (ip), vehicle: saline): 101 % of control
T/C (endpoint: mean survival time, dose: 100.0 mg/kg/injection, schedule: Q04DX002 (ip), vehicle: saline): 101 % of control

C[N+](C)(C)c1ncnc2c1ncn2C1CCCO1 (stereo not given)
T/C (endpoint: mean survival time, dose: 12.5 mg/kg/injection, schedule: Q01DX009 (ip), vehicle: saline): 93 % of control
T/C [8]: 98 % of control
T/C [9]: 112 % of control
T/C (endpoint: mean survival time, dose: 100.0 mg/kg/injection, schedule: Q01DX009 (ip), vehicle: saline): 101 % of control

c1ccc(SSc2ccccc2)cc1
T/C [12]: 100 % of control

O=C1c2ccccc2C(=O)N1CCS(=O)(=O)Cl
T/C [10]: 100 % of control
T/C [5]: 95 % of control and 101 % of control
T/C (endpoint: mean survival time, dose: 50.0 mg/kg/injection, schedule: Q04DX002 (ip), vehicle: saline with Tween-80): 97 % of control and 108 % of control
T/C [11]: 98 % of control
T/C [16]: 97 % of control
T/C [6]: 96 % of control and 101 % of control
T/C [1]: 96 % of control and 100 % of control
T/C [12]: 98 % of control
T/C [17]: 98 % of control
T/C [7]: 93 % of control
T/C [2]: 100 % of control and 101 % of control
T/C [13]: 101 % of control

CN1CC(NC(=O)N(CCCl)N=O)CC2c3cccc4[nH]cc(c34)CC21 (stereo not given)
T/C (endpoint: mean survival time, dose: 12.5 mg/kg/injection, schedule: Q01DX001 (ip), vehicle: other): 119 % of control
T/C (endpoint: mean survival time, dose: 50.0 mg/kg/injection, schedule: Q01DX001 (ip), vehicle: other): 154 % of control
T/C (endpoint: mean survival time, dose: 100.0 mg/kg/injection, schedule: Q01DX001 (ip), vehicle: other): 248 % of control
T/C [18]: 390 % of control
T/C [19]: 98 % of control

COC(=O)c1cc(C)n(-c2ccc(C)cc2)c1C
T/C [12]: 100 % of control
T/C [13]: 96 % of control
T/C [15]: 97 % of control

O=C1CC23CCCN2CCc2cc4c(cc2C3=C1O)OCO4 (stereo not given)
T/C (endpoint: mean survival time, dose: 1.56 mg/kg/injection, schedule: Q01DX009 (ip), vehicle: Klucel (hydroxypropylcellulose) (HPC)): 102 % of control
T/C (endpoint: mean survival time, dose: 3.13 mg/kg/injection, schedule: Q01DX009 (ip), vehicle: Klucel (hydroxypropylcellulose) (HPC)): 101 % of control
T/C (endpoint: mean survival time, dose: 6.25 mg/kg/injection, schedule: Q01DX009 (ip), vehicle: Klucel (hydroxypropylcellulose) (HPC)): 104 % of control
T/C (endpoint: mean survival time, dose: 12.5 mg/kg/injection, schedule: Q01DX009 (ip), vehicle: Klucel (hydroxypropylcellulose) (HPC)): 102 % of control
T/C (endpoint: mean survival time, dose: 25.0 mg/kg/injection, schedule: Q01DX009 (ip), vehicle: Klucel (hydroxypropylcellulose) (HPC)): 95 % of control

N=C(N)SCSC(=N)N
T/C (endpoint: mean survival time, dose: 100.0 mg/kg/injection, schedule: Q04DX003 (ip), vehicle: saline): 100 % of control
T/C (endpoint: mean survival time, dose: 200.0 mg/kg/injection, schedule: Q04DX003 (ip), vehicle: saline): 103 % of control

COc1cc(OC)c(NC(=O)Nc2ccccc2C(N)=O)cc1Cl
T/C [5]: 111 % of control
T/C [6]: 96 % of control
T/C [7]: 100 % of control

COc1cccc2c1C(=O)C1=C(C2=O)c2c(O)cc(CO)cc2C(O)C1O (stereo not given)
T/C (endpoint: median survival time, dose: 3.12 mg/kg/injection, schedule: Q01DX005 (ip), vehicle: other): 101 % of control
T/C (endpoint: median survival time, dose: 6.25 mg/kg/injection, schedule: Q01DX005 (ip), vehicle: other): 105 % of control
T/C (endpoint: median survival time, dose: 12.5 mg/kg/injection, schedule: Q01DX005 (ip), vehicle: other): 103 % of control
T/C (endpoint: median survival time, dose: 25.0 mg/kg/injection, schedule: Q01DX005 (ip), vehicle: other): 109 % of control
T/C (endpoint: median survival time, dose: 50.0 mg/kg/injection, schedule: Q01DX005 (ip), vehicle: other): 119 % of control

Cc1cc(O)cc(=O)o1
T/C [18]: 93 % of control
T/C [19]: 105 % of control

CCOC(=O)C(=O)Nc1ccc(Cl)cc1
T/C [16]: 94 % of control
T/C [17]: 97 % of control
T/C (endpoint: mean survival time, dose: 400.0 mg/kg/injection, schedule: Q01DX001 (ip), vehicle: saline with Tween-80): 95 % of control

CC(/C=C/C=C/c1ccccc1)=N\O
T/C (endpoint: mean survival time, dose: 100.0 mg/kg/injection, schedule: Q01DX001 (ip), vehicle: Klucel (hydroxypropylcellulose) (HPC)): 101 % of control
T/C (endpoint: mean survival time, dose: 200.0 mg/kg/injection, schedule: Q01DX001 (ip), vehicle: Klucel (hydroxypropylcellulose) (HPC)): 110 % of control
T/C (endpoint: mean survival time, dose: 400.0 mg/kg/injection, schedule: Q01DX001 (ip), vehicle: Klucel (hydroxypropylcellulose) (HPC)): 104 % of control
